# Laboratory results reported in ChEMBL document CHEMBL1201862, “PubChem BioAssay data set” (2004).
# Active and inactive are the calls of the source.
# Legend:
# [1] = molecular target: T1, Tyrosine-protein phosphatase non-receptor type 22 (Homo sapiens, UniProt Q9Y2R2); experiment: PTPN22 lymphoid phosphatase activity blockers – biochemical, fluorescence intensity, uHTS (AID 1779)
# T1 sequence (Q9Y2R2 whole entry): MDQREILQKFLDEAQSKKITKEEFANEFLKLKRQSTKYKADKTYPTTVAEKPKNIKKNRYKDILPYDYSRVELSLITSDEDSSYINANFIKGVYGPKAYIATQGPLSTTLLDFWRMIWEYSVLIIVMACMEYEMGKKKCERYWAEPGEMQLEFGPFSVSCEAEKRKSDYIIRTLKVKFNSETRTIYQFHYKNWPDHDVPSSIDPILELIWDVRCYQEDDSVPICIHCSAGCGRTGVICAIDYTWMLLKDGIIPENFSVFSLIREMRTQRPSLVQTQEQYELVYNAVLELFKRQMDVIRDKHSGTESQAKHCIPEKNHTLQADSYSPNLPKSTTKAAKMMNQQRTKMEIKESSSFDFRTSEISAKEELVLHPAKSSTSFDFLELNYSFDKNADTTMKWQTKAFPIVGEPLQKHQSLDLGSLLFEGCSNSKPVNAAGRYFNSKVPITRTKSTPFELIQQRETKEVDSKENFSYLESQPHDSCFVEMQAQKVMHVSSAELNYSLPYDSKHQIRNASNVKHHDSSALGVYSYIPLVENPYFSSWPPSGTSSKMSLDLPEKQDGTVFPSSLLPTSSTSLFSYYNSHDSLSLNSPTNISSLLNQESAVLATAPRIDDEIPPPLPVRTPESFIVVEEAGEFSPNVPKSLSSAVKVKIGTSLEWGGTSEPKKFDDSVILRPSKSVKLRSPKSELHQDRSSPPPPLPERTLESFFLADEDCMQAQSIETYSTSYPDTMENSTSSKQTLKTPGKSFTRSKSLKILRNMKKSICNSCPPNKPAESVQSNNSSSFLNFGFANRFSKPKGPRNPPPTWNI
# [2] = molecular target: T2, Carboxy-terminal domain RNA polymerase II polypeptide A small phosphatase 1 (Homo sapiens, UniProt Q9GZU7); experiment: CTDSP1 inhibitors, concentration-response, biochemical, absorbance readout, ultra-high-throughput screen actives (AID 540297); assay type: functional
# T2 sequence (Q9GZU7 whole entry): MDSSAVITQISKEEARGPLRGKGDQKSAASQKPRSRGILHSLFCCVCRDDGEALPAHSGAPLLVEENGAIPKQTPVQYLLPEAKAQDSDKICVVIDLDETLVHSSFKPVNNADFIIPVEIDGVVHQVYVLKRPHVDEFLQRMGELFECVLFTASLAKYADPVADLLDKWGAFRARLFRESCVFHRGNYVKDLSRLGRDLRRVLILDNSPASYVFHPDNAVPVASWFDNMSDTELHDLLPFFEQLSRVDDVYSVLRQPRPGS
# [3] = molecular target: T3, Tyrosine-protein phosphatase non-receptor type 7 (Homo sapiens, UniProt P35236); assay type: functional
# T3 sequence (P35236 whole entry): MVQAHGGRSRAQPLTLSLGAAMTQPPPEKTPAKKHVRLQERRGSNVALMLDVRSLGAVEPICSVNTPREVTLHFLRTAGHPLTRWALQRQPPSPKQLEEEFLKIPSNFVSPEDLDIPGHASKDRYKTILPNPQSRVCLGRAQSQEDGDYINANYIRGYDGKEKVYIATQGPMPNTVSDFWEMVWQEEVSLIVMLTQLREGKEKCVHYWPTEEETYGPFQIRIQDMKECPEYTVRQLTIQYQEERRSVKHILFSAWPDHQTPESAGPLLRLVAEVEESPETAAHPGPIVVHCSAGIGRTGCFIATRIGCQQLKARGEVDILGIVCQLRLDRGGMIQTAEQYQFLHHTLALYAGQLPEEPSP
# [4] = molecular target: T1, Tyrosine-protein phosphatase non-receptor type 22; assay type: functional
# [5] = molecular target: T1, Tyrosine-protein phosphatase non-receptor type 22; assay type: functional; remark: listed apart in the source
# [6] = molecular target: Envelope glycoprotein gp160 (Human immunodeficiency virus 1, UniProt Q6QLK5); experiment: cell-free HIV fusion peptide-binding blockers – biochemical, uHTS, fluorescence dequenching, […] (AID 1986)
# [7] = tested on: Streptococcus; experiment: GAS UMAA2166 growth inhibition – luminescence, BacTiterGlo, counter-screen for streptokinase expression inhibitor project, dose response (AID 1915); assay type: functional, organism-based;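 further: potency for reduction of bacterial viability or growth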
# [8] = molecular target: T4, Long-chain-fatty-acid--AMP ligase FadD28 (Mycobacterium tuberculosis, UniProt P9WQ59); experiment: Fluorescence polarization aasay to screen for inhibitors that compete for the binding of FadD28 to a bisubstrate Measured in Biochemical System Using Plate Reader - 2147-01_Inhibitor_Dose_CherryPick_Activity.; assay type: functional, Mycobacterium tuberculosis H37Rv
# T4 sequence (P9WQ59 whole entry): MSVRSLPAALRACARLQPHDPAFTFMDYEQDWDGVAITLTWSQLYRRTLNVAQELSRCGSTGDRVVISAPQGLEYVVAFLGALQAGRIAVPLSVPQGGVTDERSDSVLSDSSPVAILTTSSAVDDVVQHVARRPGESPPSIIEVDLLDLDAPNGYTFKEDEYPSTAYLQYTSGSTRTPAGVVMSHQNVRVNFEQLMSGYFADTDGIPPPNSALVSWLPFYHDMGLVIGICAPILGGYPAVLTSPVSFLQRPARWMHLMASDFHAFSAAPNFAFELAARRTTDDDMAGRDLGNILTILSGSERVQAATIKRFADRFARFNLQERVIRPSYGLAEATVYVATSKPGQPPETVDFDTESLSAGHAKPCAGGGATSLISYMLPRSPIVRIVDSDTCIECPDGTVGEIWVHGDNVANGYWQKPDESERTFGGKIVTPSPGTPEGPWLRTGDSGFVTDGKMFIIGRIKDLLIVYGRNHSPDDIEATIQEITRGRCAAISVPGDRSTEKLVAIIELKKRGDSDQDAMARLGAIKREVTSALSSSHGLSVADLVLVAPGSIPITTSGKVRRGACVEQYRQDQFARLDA
# [9] = CCR5-tropic HIV-1 fusion blockers – cell-based, CCR5-tropic Env, dose response (AID 2279); assay type: functional
# [10] = tested on: Streptococcus sp. 'group A'; experiment: Streptococcus pyogenes SK(-)GAS viability under kanamycin – luminescence, BacTiterGlo, confirmation, counter-screen for streptokinase expression inhibitor project, dose response (AID 1900); assay type: functional, organism-based
# [11] = molecular target: T5, Kappa-type opioid receptor (Homo sapiens, UniProt P41145); experiment: SAR analysis of Antagonists of the Kappa Opioid Receptor (KOR) using an Image-Based Assay - Set 3. [Related pubchem assays (depositor defined):AID1777, AID1785]; assay type: functional
# [12] = molecular target: Mu-type opioid receptor (Homo sapiens, UniProt P35372); experiment: SAR Analysis of Antagonists of the MOR Receptor using an Image-Based Assay - Set 3. [Related pubchem assays (depositor defined):AID1777, AID1785, AID1786, AID1966, AID2133, AID2136, AID2284, AID2285, AID2420]; assay type: functional
# [13] = molecular target: Delta-type opioid receptor (Homo sapiens, UniProt P41143); experiment: SAR Analysis of Antagonists of the DOR Receptor using an Image-Based Assay - Set 3. [Related pubchem assays (depositor defined):AID1777, AID1785]; assay type: functional;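 further: U2OS cells expressing DOR1 and beta-arrestin GFP stimulated with 100 nM SNC80; imaging of GFP-tagged beta-arrestin moving into spots after receptor activation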
# [14] = molecular target: T5, Kappa-type opioid receptor; experiment: SAR analysis of small molecule antagonists of the kappa opioid receptor via a luminescent beta-arrestin assay - Set 3. [Related pubchem assays (depositor defined):AID1777, AID1778, AID1785, AID1786, AID1966, AID2133, AID2136, AID2285, AID2495]; assay type: functional
# T5 sequence (P41145 whole entry): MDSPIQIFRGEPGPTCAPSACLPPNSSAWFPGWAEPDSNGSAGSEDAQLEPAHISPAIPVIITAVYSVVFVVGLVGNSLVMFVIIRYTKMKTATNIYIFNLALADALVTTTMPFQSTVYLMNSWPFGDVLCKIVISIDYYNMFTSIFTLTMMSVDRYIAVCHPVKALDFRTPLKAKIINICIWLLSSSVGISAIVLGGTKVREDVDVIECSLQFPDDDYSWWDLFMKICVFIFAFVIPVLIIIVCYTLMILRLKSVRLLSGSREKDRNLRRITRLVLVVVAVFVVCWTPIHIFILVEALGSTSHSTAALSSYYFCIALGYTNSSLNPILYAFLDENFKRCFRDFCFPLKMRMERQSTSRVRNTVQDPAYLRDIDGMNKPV
# Sequence of Mu-type opioid receptor (P35372 whole entry): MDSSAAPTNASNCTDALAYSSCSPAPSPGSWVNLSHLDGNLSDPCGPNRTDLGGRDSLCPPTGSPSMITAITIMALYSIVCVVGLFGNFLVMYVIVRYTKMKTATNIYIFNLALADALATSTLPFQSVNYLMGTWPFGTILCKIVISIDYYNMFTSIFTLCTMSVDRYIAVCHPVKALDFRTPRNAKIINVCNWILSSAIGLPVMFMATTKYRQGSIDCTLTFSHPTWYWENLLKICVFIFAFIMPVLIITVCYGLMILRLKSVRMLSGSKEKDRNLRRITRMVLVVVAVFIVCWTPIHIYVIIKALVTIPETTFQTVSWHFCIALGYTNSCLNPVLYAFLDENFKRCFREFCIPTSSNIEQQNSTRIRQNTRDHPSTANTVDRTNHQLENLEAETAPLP
# Sequence of Delta-type opioid receptor (P41143 whole entry): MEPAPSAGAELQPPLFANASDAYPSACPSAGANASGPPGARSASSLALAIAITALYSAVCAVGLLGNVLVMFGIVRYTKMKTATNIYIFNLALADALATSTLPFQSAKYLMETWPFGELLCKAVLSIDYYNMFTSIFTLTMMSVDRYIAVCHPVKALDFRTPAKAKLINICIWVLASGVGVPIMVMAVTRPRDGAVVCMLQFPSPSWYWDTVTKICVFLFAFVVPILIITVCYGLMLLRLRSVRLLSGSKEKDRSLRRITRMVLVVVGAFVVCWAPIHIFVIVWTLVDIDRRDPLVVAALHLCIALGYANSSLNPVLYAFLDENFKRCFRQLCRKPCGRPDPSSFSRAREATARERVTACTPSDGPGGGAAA
# Sequence of Envelope glycoprotein gp160 (Q6QLK5 whole entry, the tested form may be a part): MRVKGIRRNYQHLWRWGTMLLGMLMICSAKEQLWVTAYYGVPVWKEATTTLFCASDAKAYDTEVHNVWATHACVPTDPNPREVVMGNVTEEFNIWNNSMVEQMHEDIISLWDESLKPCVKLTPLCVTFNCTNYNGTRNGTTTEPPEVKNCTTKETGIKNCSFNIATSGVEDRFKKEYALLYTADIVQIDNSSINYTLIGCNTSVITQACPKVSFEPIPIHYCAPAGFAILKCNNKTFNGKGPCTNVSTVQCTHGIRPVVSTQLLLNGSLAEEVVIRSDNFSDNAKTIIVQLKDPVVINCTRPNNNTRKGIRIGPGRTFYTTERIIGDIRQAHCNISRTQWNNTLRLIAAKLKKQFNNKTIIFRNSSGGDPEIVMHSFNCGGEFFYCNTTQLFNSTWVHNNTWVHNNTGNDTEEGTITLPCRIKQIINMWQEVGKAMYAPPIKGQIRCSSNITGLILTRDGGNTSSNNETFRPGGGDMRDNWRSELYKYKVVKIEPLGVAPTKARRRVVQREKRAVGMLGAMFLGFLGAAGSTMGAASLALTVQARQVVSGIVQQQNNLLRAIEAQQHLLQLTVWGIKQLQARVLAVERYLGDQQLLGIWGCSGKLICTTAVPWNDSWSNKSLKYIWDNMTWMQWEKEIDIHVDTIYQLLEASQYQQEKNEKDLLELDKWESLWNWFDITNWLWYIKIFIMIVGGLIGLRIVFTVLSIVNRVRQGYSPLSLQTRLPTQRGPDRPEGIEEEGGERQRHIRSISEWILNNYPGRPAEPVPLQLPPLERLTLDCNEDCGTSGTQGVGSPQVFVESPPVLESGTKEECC
smiles,measurement,setting,value
CCOc1cc(/C=C2/NC(=O)NC2=O)cc(Br)c1OCc1ccc(C(=O)O)cc1,IC50,[1],8.82 µM (active)
same,IC50,[2],5.9 µM (active)
same,IC50,[3],4.2 µM (active)
same,IC50,[4],5.76 µM (active)
same,IC50,[5],2.39 µM (active)
Oc1cc(-c2ccccc2)nc2c(-c3ccccc3)c(C(F)(F)F)nn12,IC50,[6],17.5 µM (active)
same,EC50,[7],4.84 µM (active)
same,AC50,[8],54.1 µM (active)
same,IC50,[9],> 50 µM (active)
same,EC50,[10],3.47 µM (active)
Cc1cccc(S(=O)(=O)NCc2ccc(C(=O)NCCN3Cc4ccccc4C3)cc2)c1,IC50,[11],> 32 µM (inactive)
same,IC50,[12],> 32 µM (inactive)
same,IC50,[13],> 32 µM (inactive)
same,IC50,[14],> 20 µM (inactive)
